Laboratory results reported in ChEMBL document CHEMBL1133362, “Discovery and evaluation of potent, cysteine-based alpha4beta1 integrin antagonists” (Bioorg Med Chem Lett, 2000).

Molecular target: Integrin alpha-4/beta-1 (Homo sapiens, UniProt P05556+P13612)
Test: Inhibition of VCAM (vascular cell adhesion molecule) adhesion to alpha4-beta1 integrin of leukocyte cells
Format: functional, cell-based

Integrin alpha-4/beta-1, sequence (P05556 whole entry): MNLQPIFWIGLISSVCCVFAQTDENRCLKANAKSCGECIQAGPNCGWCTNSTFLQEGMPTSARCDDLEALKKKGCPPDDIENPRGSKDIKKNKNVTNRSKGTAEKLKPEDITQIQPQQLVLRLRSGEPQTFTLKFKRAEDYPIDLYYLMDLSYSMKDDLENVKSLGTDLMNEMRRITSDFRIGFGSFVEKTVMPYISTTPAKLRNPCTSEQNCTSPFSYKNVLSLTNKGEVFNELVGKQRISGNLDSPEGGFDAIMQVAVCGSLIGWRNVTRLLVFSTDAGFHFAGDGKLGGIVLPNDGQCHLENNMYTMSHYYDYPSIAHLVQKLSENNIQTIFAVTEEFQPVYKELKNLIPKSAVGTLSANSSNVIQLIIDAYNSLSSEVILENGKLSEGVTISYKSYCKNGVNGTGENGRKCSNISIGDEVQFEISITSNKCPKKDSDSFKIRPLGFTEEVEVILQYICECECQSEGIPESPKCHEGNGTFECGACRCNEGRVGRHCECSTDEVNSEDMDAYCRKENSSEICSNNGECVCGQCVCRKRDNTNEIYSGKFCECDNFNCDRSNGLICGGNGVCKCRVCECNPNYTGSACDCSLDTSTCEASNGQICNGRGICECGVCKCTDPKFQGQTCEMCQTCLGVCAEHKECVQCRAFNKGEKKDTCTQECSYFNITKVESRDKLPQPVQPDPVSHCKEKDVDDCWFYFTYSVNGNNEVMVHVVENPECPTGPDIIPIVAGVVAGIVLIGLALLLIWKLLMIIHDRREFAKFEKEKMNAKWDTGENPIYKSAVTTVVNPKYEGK
Integrin alpha-4/beta-1, sequence (P13612 whole entry): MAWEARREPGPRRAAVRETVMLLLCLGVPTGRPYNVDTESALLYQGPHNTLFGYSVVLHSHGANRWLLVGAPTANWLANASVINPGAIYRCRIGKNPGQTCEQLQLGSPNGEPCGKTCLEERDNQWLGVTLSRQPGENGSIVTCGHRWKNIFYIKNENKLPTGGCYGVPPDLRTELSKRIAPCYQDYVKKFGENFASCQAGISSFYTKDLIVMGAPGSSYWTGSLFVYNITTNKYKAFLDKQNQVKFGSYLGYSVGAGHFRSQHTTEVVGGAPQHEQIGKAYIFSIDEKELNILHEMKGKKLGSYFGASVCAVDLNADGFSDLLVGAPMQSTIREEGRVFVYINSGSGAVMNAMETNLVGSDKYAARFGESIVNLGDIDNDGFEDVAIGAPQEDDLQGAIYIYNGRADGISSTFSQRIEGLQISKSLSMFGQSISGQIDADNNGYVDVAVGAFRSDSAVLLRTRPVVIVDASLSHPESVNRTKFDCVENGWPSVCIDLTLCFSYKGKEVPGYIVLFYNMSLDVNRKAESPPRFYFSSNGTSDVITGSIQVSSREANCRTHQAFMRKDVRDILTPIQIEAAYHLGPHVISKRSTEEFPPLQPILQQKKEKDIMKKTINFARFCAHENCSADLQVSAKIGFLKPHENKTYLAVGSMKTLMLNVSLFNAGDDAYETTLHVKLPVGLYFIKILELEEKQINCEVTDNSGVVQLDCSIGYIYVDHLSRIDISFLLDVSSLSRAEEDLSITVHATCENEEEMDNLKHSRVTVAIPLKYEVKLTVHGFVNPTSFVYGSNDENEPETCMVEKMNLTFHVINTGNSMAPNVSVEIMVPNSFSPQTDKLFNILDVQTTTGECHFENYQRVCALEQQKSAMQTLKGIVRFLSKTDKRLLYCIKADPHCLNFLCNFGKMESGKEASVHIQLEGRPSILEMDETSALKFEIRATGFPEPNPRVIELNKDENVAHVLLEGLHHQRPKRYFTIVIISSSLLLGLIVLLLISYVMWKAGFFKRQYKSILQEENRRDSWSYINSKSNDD

IC50 | Compound
25200 nM | COC(=O)[C@H](CSSC[C@H](NC(=O)[C@@H]1CCCN1C(C)=O)C(=O)O)NC(=O)C12CC3CC(CC(C3)C1)C2
330 nM | C[C@H]1CN2CCC[C@H]2C(=O)N[C@H](C(=O)O)CSSC[C@H](NC(=O)C23CC4CC(CC(C4)C2)C3)C(=O)N1
2340 nM | CC(=O)N1CCC[C@H]1C(=O)N[C@@H](CSSCCNC(=O)C12CC3CC(CC(C3)C1)C2)C(=O)O
170 nM | O=C(O)C[C@H]1CN2CCC[C@H]2C(=O)N[C@H](C(=O)O)CSSC[C@H](NC(=O)C23CC4CC(CC(C4)C2)C3)C(=O)N1
280 nM | CC(=O)N1CSC[C@H]1C(=O)N[C@@H](CSSCCNC(=O)C12CC3CC(CC(C3)C1)C2)C(=O)O
4100 nM | O=C(O)[C@H](CSSCCNC(=O)C12CC3CC(CC(C3)C1)C2)NC(=O)C12CC3CC(CC(C3)C1)C2
> 800000 nM | COC(=O)[C@H](CSSC[C@H](NC(=O)C12CC3CC(CC(C3)C1)C2)C(=O)OC)NC(=O)C12CC3CC(CC(C3)C1)C2
425 nM | CC(=O)N1CCCC[C@H]1C(=O)N[C@@H](CSSCCNC(=O)C12CC3CC(CC(C3)C1)C2)C(=O)O
5100 nM | COC(=O)[C@H](CSSC[C@H](NC(=O)C12CC3CC(CC(C3)C1)C2)C(=O)O)NC(=O)C12CC3CC(CC(C3)C1)C2
7300 nM | O=C(O)[C@H](CSSC[C@H](NC(=O)C12CC3CC(CC(C3)C1)C2)C(=O)O)NC(=O)C12CC3CC(CC(C3)C1)C2
12 nM | O=C(O)C[C@H]1CN2CCCC[C@H]2C(=O)N[C@H](C(=O)O)CSSC[C@H](NC(=O)C23CC4CC(CC(C4)C2)C3)C(=O)N1
47 nM | O=C(O)C[C@H]1CN2CSC[C@H]2C(=O)N[C@H](C(=O)O)CSSC[C@H](NC(=O)C23CC4CC(CC(C4)C2)C3)C(=O)N1
